Source: patent US8987195B2 (priority 2012, dated 2015)
Where two headings read alike, the source gives them in different places.

Columns and labels:
HCV genotype 1b replicon = test: HCV replicon assay, genotype 1b replicon EC50; assay type: cell-based, Hepatitis C virus; conditions: read-out: EC50 [gt-1b]
Method in brief: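 Replicon cells (Neo^r, some luciferase:Neo^r fusion); G418 removed at plating; compound dilution series, 24-48 h. Readout: RNA by 32P-probe hybridization/protection or TaqMan, normalized to cyclophilin A RNA, or luciferase. EC50 vs DMSO control, 4-parameter fit.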

[1] = biological target: HCV NS3/4A protease genotype 1b (Hepatitis C virus genotype 1b, UniProt P26663); test: HCV NS3/4A protease time-resolved fluorescence (TRF) assay, Ki against genotype 1b; assay type: biochemical
Method in brief: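 Enzyme 0.2 nM 1b / 0.4 nM A156T / 0.025 nM 3a; 30 min preinc. w/ cpd; 25 nM TRF peptide; 2.5 h RT; ex 340/em 615 time-delayed; 4-param IC50 → Ki = IC50/(1+[S]/KM).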

[2] = Hepatitis C virus, HCV replicon, genotype 1b
[3] = IC50 [gt-1b], NS3/4A protease TRF assay, genotype 1b enzyme 0.2 nM
[4] = IC50 [gt-1b] (nM), NS3/4A genotype 1b, enzyme 0.2 nM
[5] = Hepatitis C virus, genotype 1b replicon
[6] = Hepatitis C virus, genotype 1b replicon, K+ salt
[7] = IC50 [gt-1b] (nM), NS3/4A genotype 1b, enzyme 0.2 nM, K+ salt

| Structure (SMILES) | EC50 (HCV genotype 1b replicon; [2]) [nM] | IC50 [1, 3] [nM] | IC50 [1, 4] [nM] | EC50 (HCV genotype 1b replicon; [5]) [nM] | other results |
| --- | --- | --- | --- | --- | --- |
| COc1ccc2nc(C)c3c(c2c1)[C@H](F)C[C@]1(C[C@H]2C(=O)N[C@]4(C(=O)NS(=O)(=O)C5(C)CC5)C[C@H]4/C=C\CCCCC[C@H](NC(=O)OC4CCCC4)C(=O)N2C1)O3 [Example 373, cyclopentyl [(1′R,2S,6S,12Z,13aS,14aR,16aS)-1′-fluoro-9′-methoxy-5′-methyl-14a-{[(1-methylcyclopropyl)sulfonyl]carbamoyl}-5,16-dioxo-1,1′,2′,5,6,7,8,9,10,11,13a,14,14a,15,16,16a-hexadecahydrospiro[cyclopropa[e]pyrrolo[1,2-a][1,4]diazacyclopentadecine-2,3′-pyrano[2,3-c]quinolin]-6-yl]carbamate] | – | – | – | – | EC50 (HCV genotype 1b replicon; Hepatitis C virus, HCV replicon, genotype 1b, K+ salt): 2.67 nM; IC50 ([1]; IC50 [gt-1b], NS3/4A protease TRF assay, genotype 1b enzyme 0.2 nM, K+ salt): 0.011 nM |
| Cc1ccc2nc(C(F)(F)F)c3c(c2c1)CC[C@]1(C[C@H]2C(=O)N[C@]4(C(=O)NS(=O)(=O)C5(C)CC5)C[C@H]4/C=C\CCCCC[C@H](NC(=O)OCCCN4CCCCC4)C(=O)N2C1)O3 [Example 423, 3-(piperidin-1-yl)propyl [(2R,6S,12Z,13aS,14aR,16aS)-9′-methyl-14a-{[(1-methylcyclopropyl)sulfonyl]carbamoyl}-5,16-dioxo-5′-(trifluoromethyl)-1,1′,2′,5,6,7,8,9,10,11,13a,14,14a,15,16,16a-hexadecahydrospiro[cyclopropa[e]pyrrolo[1,2-a][1,4]diazacyclopentadecine-2,3′-pyrano[2,3-c]quinolin]-6-yl]carbamate] | 19 | 0.048 | – | – | – |
| COCCOc1ccc2nc(C)c3c(c2c1)CC[C@]1(C[C@H]2C(=O)N[C@]4(C(=O)NS(=O)(=O)C5(C)CC5)C[C@H]4/C=C\CCCCC[C@H](NC(=O)OC(C)(C)C)C(=O)N2C1)O3 [Example 409, tert-butyl [(2R,6S,12Z,13aS,14aR,16aS)-9′-(2-methoxyethoxy)-5′-methyl-14a-{[(1-methylcyclopropyl)sulfonyl]carbamoyl}-5,16-dioxo-1,1′,2′,5,6,7,8,9,10,11,13a,14,14a,15,16,16a-hexadecahydrospiro[cyclopropa[e]pyrrolo[1,2-a][1,4]diazacyclopentadecine-2,3′-pyrano[2,3-c]quinolin]-6-yl]carbamate] | 4.73 | 0.02 | – | – | – |
| CCc1ccc2nc(C)c3c(c2c1)C(F)C[C@]1(C[C@H]2C(=O)N[C@]4(C(=O)NS(=O)(=O)C5(C)CC5)C[C@H]4/C=C\CCCCC[C@H](NC(=O)OC(C)(C)C(F)(F)F)C(=O)N2C1)O3 (single isomer, unassigned) [Example 347] | – | – | 0.981 | – | EC50 (HCV genotype 1b replicon; genotype 1b replicon): 3060 nM |
| COc1ccc2nc(C(C)C)c3c(c2c1)CC[C@]1(C[C@H]2C(=O)N[C@]4(C(=O)NS(=O)(=O)C5(C)CC5)C[C@H]4/C=C\CCCCC[C@H](NC(=O)OC4(C)CC4)C(=O)N2C1)O3 [Example 165, 1-methylcyclopropyl [(2R,6S,12Z,13aS,14aR,16aS)-9′-methoxy-14a-{[(1-methylcyclopropyl)sulfonyl]carbamoyl}-5,16-dioxo-5′-(propan-2-yl)-1,1′,2′,5,6,7,8,9,10,11,13a,14,14a,15,16,16a-hexadecahydrospiro[cyclopropa[e]pyrrolo[1,2-a][1,4]diazacyclopentadecine-2,3′-pyrano[2,3-c]quinolin]-6-yl]carbamate] | – | – | 0.005 | 1.39 | – |
| Cc1cccc(N[C@H]2CCCCC/C=C\[C@@H]3C[C@@]3(C(=O)NS(=O)(=O)C3(C)CC3)NC(=O)[C@@H]3C[C@]4(CCc5c(c(C)nc6ccccc56)O4)CN3C2=O)n1 [Example 343, (2R,6S,12Z,13aS,14aR,16aS)-5′-methyl-N-[(1-methylcyclopropyl)sulfonyl]-6-[(6-methylpyridin-2-yl)amino]-5,16-dioxo-1,1′,2′,6,7,8,9,10,11,13a,14,15,16,16a-tetradecahydrospiro[cyclopropa[e]pyrrolo[1,2-a][1,4]diazacyclopentadecine-2,3′-pyrano[2,3-c]quinoline]-14a(5H)-carboxamide] | – | – | 0.05 | 5.86 | – |
| COc1ccc2nc(C(C)C)c3c(c2c1)[C@H](F)C[C@]1(C[C@H]2C(=O)N[C@]4(C(=O)NS(=O)(=O)C5(C)CC5)C[C@H]4/C=C\CCCCC[C@H](NC(=O)OC(C)(C)C(F)(F)F)C(=O)N2C1)O3 [Example 352, 1,1,1-trifluoro-2-methylpropan-2-yl [(1′R,2S,6S,12Z,13aS,14aR,16aS)-1′-fluoro-9′-methoxy-14a-{[(1-methylcyclopropyl)sulfonyl]carbamoyl}-5,16-dioxo-5′-(propan-2-yl)-1,1′,2′,5,6,7,8,9,10,11,13a,14,14a,15,16,16a-hexadecahydrospiro[cyclopropa[e]pyrrolo[1,2-a][1,4]diazacyclopentadecine-2,3′-pyrano[2,3-c]quinolin]-6-yl]carbamate] | – | – | – | – | EC50 (HCV genotype 1b replicon; [6]): 1.45 nM; IC50 [1, 7]: 0.042 nM |
| Cc1nc2ccc(Cl)cc2c2c1O[C@]1(CC2)C[C@H]2C(=O)N[C@]3(C(=O)NS(=O)(=O)C4(C)CC4)C[C@H]3/C=C\CCCCC[C@H](NC(=O)OC3CCC3)C(=O)N2C1 [Example 185, cyclobutyl [(2R,6S,12Z,13aS,14aR,16aS)-9′-chloro-5′-methyl-14a-{[(1-methylcyclopropyl)sulfonyl]carbamoyl}-5,16-dioxo-1,1′,2′,5,6,7,8,9,10,11,13a,14,14a,15,16,16a-hexadecahydrospiro[cyclopropa[e]pyrrolo[1,2-a][1,4]diazacyclopentadecine-2,3′-pyrano[2,3-c]quinolin]-6-yl]carbamate] | – | – | – | – | EC50 (HCV genotype 1b replicon; [6]): 4.14 nM; IC50 [1, 7]: 0.005 nM |
| COCCOc1ccc2nc(C)c3c(c2c1)CC[C@]1(C[C@H]2C(=O)N[C@]4(C(=O)NS(=O)(=O)C5(C)CC5)C[C@H]4/C=C\CCCCC[C@H](NC(=O)OCC(C)C)C(=O)N2C1)O3 [Example 411, 2-methylpropyl [(2R,6S,12Z,13aS,14aR,16aS)-9′-(2-methoxyethoxy)-5′-methyl-14a-{[(1-methylcyclopropyl)sulfonyl]carbamoyl}-5,16-dioxo-1,1′,2′,5,6,7,8,9,10,11,13a,14,14a,15,16,16a-hexadecahydrospiro[cyclopropa[e]pyrrolo[1,2-a][1,4]diazacyclopentadecine-2,3′-pyrano[2,3-c]quinolin]-6-yl]carbamate] | 5.77 | 0.064 | – | – | – |
| CCCCCOC(=O)N[C@H]1CCCCC/C=C\[C@@H]2C[C@@]2(C(=O)NS(=O)(=O)C2(C)CC2)NC(=O)[C@@H]2C[C@]3(CCc4c(c(C5CC5)nc5cc(OC)ccc45)O3)CN2C1=O [Example 273, pentyl [(2R,6S,12Z,13aS,14aR,16aS)-5′-cyclopropyl-8′-methoxy-14a-{[(1-methylcyclopropyl)sulfonyl]carbamoyl}-5,16-dioxo-1,1′,2′,5,6,7,8,9,10,11,13a,14,14a,15,16,16a-hexadecahydrospiro[cyclopropa[e]pyrrolo[1,2-a][1,4]diazacyclopentadecine-2,3′-pyrano[2,3-c]quinolin]-6-yl]carbamate] | – | – | – | – | EC50 (HCV genotype 1b replicon; Hepatitis C virus, genotype 1b replicon, HCOOH salt): 163 nM; IC50 ([1]; IC50 [gt-1b] (nM), NS3/4A genotype 1b, enzyme 0.2 nM, HCOOH salt): 1.13 nM |
| COc1ccc2nc(C)c3c(c2n1)CC[C@]1(C[C@H]2C(=O)N[C@]4(C(=O)NS(=O)(=O)C5(C)CC5)C[C@H]4/C=C\CCCCC[C@H](NC(=O)OC4CCCC4)C(=O)N2C1)O3 [Example 363, cyclopentyl [(2R,6S,12Z,13aS,14aR,16aS)-2′-methoxy-6′-methyl-14a-{[(1-methylcyclopropyl)sulfonyl]carbamoyl}-5,16-dioxo-1,5,6,7,8,9,9′,10,10′,11,13a,14,14a,15,16,16a-hexadecahydrospiro[cyclopropa[e]pyrrolo[1,2-a][1,4]diazacyclopentadecine-2,8′-pyrano[2,3-c][1,5]naphthyridin]-6-yl]carbamate] | 8.16 | 0.011 | – | – | – |
| CC(C)(C)OC(=O)N[C@H]1CCCCC/C=C\[C@@H]2C[C@@]2(C(=O)NS(=O)(=O)C2(C)CC2)NC(=O)[C@@H]2C[C@@]3(CCc4c(ccc5ccccc45)O3)CN2C1=O [Example 72, tert-butyl [(3S,6′S,12′Z,13a′S,14a′R,16a′S)-14a′-{[(1-methylcyclopropyl)sulfonyl]carbamoyl}-5′,16′-dioxo-1,1′,2,5′,6′,7′,8′,9′,10′,11′,13a′,14′,14a′,15′,16′,16a′-hexadecahydrospiro[benzo[f]chromene-3,2′-cyclopropa[e]pyrrolo[1,2-a][1,4]diazacyclopentadecin]-6′-yl]carbamate] | – | – | 0.665 | 24.2 | – |
| CC(C)(OC(=O)N[C@H]1CCCCC/C=C\[C@@H]2C[C@@]2(C(=O)NS(=O)(=O)C2(C)CC2)NC(=O)[C@@H]2C[C@]3(CCc4c(c(C(F)F)nc5ccc(Cl)cc45)O3)CN2C1=O)C(F)(F)F [Example 334, 1,1,1-trifluoro-2-methylpropan-2-yl [(2R,6S,12Z,13aS,14aR,16aS)-9′-chloro-5′-(difluoromethyl)-14a-{[(1-methylcyclopropyl)sulfonyl]carbamoyl}-5,16-dioxo-1,1′,2′,5,6,7,8,9,10,11,13a,14,14a,15,16,16a-hexadecahydrospiro[cyclopropa[e]pyrrolo[1,2-a][1,4]diazacyclopentadecine-2,3′-pyrano[2,3-c]quinolin]-6-yl]carbamate] | – | – | 0.019 | 5.59 | – |
